Values belong to the compound of their own block, whether it stands above or below them.
How the values were obtained:
[1] = target: T1, Solute carrier family 2, facilitated glucose transporter member 4 (Rattus norvegicus) (UniProt P19357); assay: Induction of GLUT4 translocation in rat L6 cells assessed as increase in 2-deoxyglucose uptake relative to control; format: cell-based
T1 sequence (whole entry): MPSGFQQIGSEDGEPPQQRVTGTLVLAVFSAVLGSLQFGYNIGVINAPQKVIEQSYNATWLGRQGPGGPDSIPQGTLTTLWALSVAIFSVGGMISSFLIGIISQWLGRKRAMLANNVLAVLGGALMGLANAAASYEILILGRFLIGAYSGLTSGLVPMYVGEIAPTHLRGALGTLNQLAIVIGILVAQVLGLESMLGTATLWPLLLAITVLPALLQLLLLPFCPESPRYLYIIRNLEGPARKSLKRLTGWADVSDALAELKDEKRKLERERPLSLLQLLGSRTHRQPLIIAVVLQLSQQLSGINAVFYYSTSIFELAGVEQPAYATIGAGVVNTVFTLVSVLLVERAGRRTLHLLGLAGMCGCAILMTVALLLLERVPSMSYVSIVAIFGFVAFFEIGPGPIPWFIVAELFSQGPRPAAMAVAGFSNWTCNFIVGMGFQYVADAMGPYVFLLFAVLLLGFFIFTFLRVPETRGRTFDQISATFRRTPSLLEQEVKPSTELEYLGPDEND

[2] = species on record: Homo sapiens; assay: Inhibition of ALR1 (unknown origin); conditions: concentration not given here
[3] = target: Aldo-keto reductase family 1 member B1 (Homo sapiens) (UniProt P15121); assay: Inhibition of ALR2 (unknown origin); conditions: concentration not given here
[4] = target: Aldo-keto reductase family 1 member B1 (Homo sapiens) (UniProt P15121); assay: Inhibition of aldose reductase (unknown origin) at 10 ug/ml
[5] = target: T2, Tyrosine-protein phosphatase non-receptor type 1 (Homo sapiens, UniProt P18031); assay: Inhibition of PTP1B (unknown origin)
T2 sequence (P18031 whole entry): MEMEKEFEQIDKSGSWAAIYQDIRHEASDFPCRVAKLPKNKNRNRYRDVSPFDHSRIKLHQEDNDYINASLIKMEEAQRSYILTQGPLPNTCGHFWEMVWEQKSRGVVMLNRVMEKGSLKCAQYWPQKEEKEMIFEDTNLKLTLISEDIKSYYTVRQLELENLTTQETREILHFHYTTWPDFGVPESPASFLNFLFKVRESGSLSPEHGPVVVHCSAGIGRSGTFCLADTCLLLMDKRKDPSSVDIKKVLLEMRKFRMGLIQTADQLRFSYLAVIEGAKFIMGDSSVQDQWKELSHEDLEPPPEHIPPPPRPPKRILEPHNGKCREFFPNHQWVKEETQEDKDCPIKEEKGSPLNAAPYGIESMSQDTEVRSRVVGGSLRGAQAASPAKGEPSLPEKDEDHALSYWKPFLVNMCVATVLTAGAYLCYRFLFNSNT

[6] = Non-competitive inhibition of alpha-glucosidase (unknown origin); design: species or system Homo sapiens
[7] = target: T2, Tyrosine-protein phosphatase non-receptor type 1; assay: Competitive inhibition of PTP1B (unknown origin) using p-nitrophenyl phosphate as substrate
[8] = tested on: Oryctolagus cuniculus; assay: Reduction of blood glucose in normoglycemic rabbit at 50 mg/kg, po after 4 hrs; format: functional; design: scale not given: the % may be the effect or the level left

Ratio [1]: 1.9
SMILES: COc1ccc(C(=O)/C=C/c2ccc(O)cc2)c(O)c1CC=C(C)C

inhibition [2]: 35%
inhibition [3]: 35%
SMILES: CSc1ccc(/C=C/C(=O)c2ccc(O)cc2O)cc1

inhibition [4]: 53.7%
SMILES: C=C(C)C(CCC(C)(C)O)Cc1c(O)cc(OC)c(C(=O)/C(O)=C/c2ccc(O)cc2O)c1O (stereo unspecified)

IC50 [5]: 21.5 µM
IC50 [6]: 5.3 µM
SMILES: CC(C)=CCc1cc(C(=O)/C=C/c2ccc(O)c(O)c2)c(O)cc1O [BROUSSOCHALCONE A]

IC50 [7]: 2.49 µM
SMILES: O=C(/C=C/c1ccco1)c1ccc(O)cc1O

IC50 [6]: 5.3 µM
SMILES: CC(C)=CCc1cc(C(=O)/C=C/c2ccc(O)cc2)c(O)cc1O [BROUSSOCHALCONE B]

IC50 [7]: 2.9 µM
SMILES: O=C(/C=C/c1ccco1)c1cccc(Cl)c1

Ratio [1]: 1.9
SMILES: CC(C)=CCC/C(C)=C/Cc1c(O)ccc(C(=O)/C=C/c2ccc(O)cc2)c1O

IC50 [6]: 5.3 µM
SMILES: CC1(C)CCc2cc(C(=O)/C=C/c3ccc(O)c(O)c3)c(O)cc2O1

inhibition [2]: 35%
inhibition [3]: 35%
SMILES: COc1ccc(/C=C/C(=O)c2ccc(OC)cc2O)cc1

IC50 [6]: 5.3 µM
SMILES: CC1(C)CCc2cc(C(=O)/C=C/c3ccc(O)cc3)c(O)cc2O1

inhibition [2]: 35%
inhibition [3]: 35%
SMILES: O=C(/C=C/c1ccc(Cl)cc1)c1ccc(O)cc1O

inhibition [4]: 53.7%
SMILES: C=C(C)C(CC=C(C)C)Cc1c(O)cc(OC)c(C(=O)/C(O)=C/c2ccc(O)cc2O)c1O (stereo unspecified)

inhibition [4]: 53.7%
SMILES: COc1cc(O)c(CC=C(C)C)c(O)c1C(=O)/C(O)=C/c1ccc(O)cc1

SMILES: Cc1ccc(S(=O)(=O)CC(=O)Cc2ccccc2C(=O)/C=C/c2ccc(Cl)cc2Cl)cc1
Activity [8]: 38.73%

inhibition [4]: 55.6%
SMILES: CC(/C=C1\SC(=S)N(CC(=O)O)C1=O)=C\c1ccccc1

IC50 [6]: 8.8 µM
SMILES: COc1cc(O)c(CC=C(C)C)c(O)c1C(=O)/C=C/c1ccc(O)cc1 [XANTHOHUMOL]

— ChEMBL document CHEMBL3407496, “Chalcones and their therapeutic targets for the management of diabetes: structural and pharmacological perspectives” (Eur J Med Chem, 2015)
